Non-standard residues stand in square brackets, D forms with d. Groups on a side chain read outwards from the residue. No end group written: not given here. M3190 payload = not defined here; AA10 = not defined here; AA1 = not defined here; AA2 = not defined here; AA6 = not defined here; AA9 = not defined here
Tests used:
[1] = Metabolite study in human liver S9 (high resolution LC-MS); assay type: in vitro ADME
Description: Metabolite studies were conducted using Q-M3190 and Q-6009 (Q is Glutamine).
Liver S9 is the supernatant obtained by grinding and centrifuging the liver cells. The enzymes content is lower compared to Hepatocytes. It mainly contains CYP enzymes and some biphasic enzymes (but no biphasic coenzyme), so additional coenzyme (NADPH and UDPGA, etc.) is needed to mediate the biphasic reaction.

GLP-1R [2] = target: T1, GLP-1R (Homo sapiens, UniProt P43220); assay: b-arrestin 2 recruitment enzyme fragment complementation assay in HEK293/b-arrestin2/hGLP1R cells; assay type: cell-based; parameters: The full-length human GLP1R (NP_002053.3) with a C-terminus fusion to a small b-gal fragment called enzyme donor or ProLink (PK); host or cells: HEK293/b-arrestin2-EA (HEK293/Barrestin clone 2C6/hGLP1R-Prolink1 high sorted, ACL21687)
T1 sequence (P43220 24-463): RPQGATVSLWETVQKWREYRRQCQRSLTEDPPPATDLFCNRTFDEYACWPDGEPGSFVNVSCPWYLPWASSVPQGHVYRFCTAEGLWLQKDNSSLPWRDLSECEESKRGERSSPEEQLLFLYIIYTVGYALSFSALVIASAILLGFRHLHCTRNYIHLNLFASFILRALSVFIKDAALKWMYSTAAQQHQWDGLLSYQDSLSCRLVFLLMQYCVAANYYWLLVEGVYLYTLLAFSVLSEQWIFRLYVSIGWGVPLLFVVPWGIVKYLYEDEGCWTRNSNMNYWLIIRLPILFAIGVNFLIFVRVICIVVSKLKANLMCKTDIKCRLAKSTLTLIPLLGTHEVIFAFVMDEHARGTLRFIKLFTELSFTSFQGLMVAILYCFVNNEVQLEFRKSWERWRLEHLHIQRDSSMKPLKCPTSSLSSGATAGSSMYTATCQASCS
Description: To test the recruitment of b-arrestin 1 and b-arrestin 2 to GLP1R upon receptor activation, two enzyme fragment complementation assays were developed. To generate the assay cell lines, b-arrestin 1 fused to the b-galactosidase (b-gal) reporter fragment called enzyme acceptor (EA) (i.e., b-arrestin1-EA) or b-arrestin 2 fused to the b-gal reporter fragment EA (i.e., b-arrestin2-EA) were transduced into HEK293 cells using PathHunter b-Arrestinl Retroparticles (DiscoverX, #83-OT-TB-N-01) or PathHunter b-Arrestin2 Retroparticles (DiscoverX, #93-1087), respectively. The full-length human GLP1R (NP_002053.3) with a C-terminus fusion to a small b-gal fragment called enzyme donor or ProLink (PK) (i.e., hGLP1R-PK) was then engineered into HEK293/b-arrestinl-EA cells and HEK293/b-arrestin2-EA cells to generate the cell lines referred herein as HEK293/b-arrestin1/hGLP1R and HEK293/b-arrestin2/hGLP1R. Recruitment of b-arrestin 1 or b-arrestin 2 to GLP1R in these reporter cell lines brings both b-gal fragments (EA and PK) into close proximity, leading to reconstitution of a fully functional enzyme capable of hydrolyzing a substrate and generating a chemiluminescent signal.
(§1) For all assays, cells were seeded into 384-well plates (Falcon #353988) at 6,000 cells/well in assay media (Opti-MEM, 1% FBS, 1×Penicillin-Streptomycin) and incubated overnight at 37° C. Serial dilutions of the anti-GLP1R ATLs and non-binding control ATLs were performed in assay media. Serial dilutions of linker-payloads (LPs) were performed in 100% DMSO (ATCC, #4-X-5), followed by 1:100 dilution in assay media. Test articles were added to cells (1:5 dilution) using VIAFLO 384 (Integra) with the last well in each serial dilution series serving as a blank control containing only assay media for ATLs or assay media with 0.2% DMSO for LPs. The blank was plotted as a continuation of the serial dilution.
For b-arrestin 1 and b-arrestin 2 recruitment assays, after a 1-hour incubation at 37° C., PathHunter Detection Reagent (Eurofins DiscoverX, #93-0001) was added to the wells followed by a 1-hour incubation at room temperature. RLUs were measured on EnVision Plate Reader (Perkin Elmer).
(§2) EC50 values for luminescence assays were determined using a four-parameter logistic equation over a 12-point dose response curve (GraphPad Prism).

GLP-1R [3] = target: T1, GLP-1R; assay: GLP-1R cAMP assay of peptides (Tables 10, 14, 15); assay type: cell-based
GLP-1R [4] = target: T1, GLP-1R; assay: CRE-Luc cAMP responsive luciferase reporter assay in HEK293/CRE-Luc/hGLP1R cells; assay type: cell-based; parameters: engineered to express full-length human GLP1R (GenBank: AAI12127.1) (HEK293/CRE-Luc/hGLP1R); expressed in transfected cells; host or cells: HEK293/CRE-Luc (HEK293/FSC11/pCDNA3.1 + GLP1R, ACL6822); conditions: for Emax: HEK293, read-out: Emax (% GLP-1), CRE-dependent reporter activity, HEK293/CRE-Luc/hGLP1R
Description: To test the activity of GLP1R agonist linker-payloads (LPs) and anti-GLP1R antibody-tethered ligands (ATLs) of the invention, a cell-based cAMP responsive luciferase reporter assay was developed. To generate the assay cell line, the firefly luciferase gene was placed under the control of four copies of a cAMP response element (4×CRE) located upstream of a minimal promoter and transfected into HEK293 cells and referred to herein as HEK293/CRE-Luc cells. HEK293/CRE-Luc cells were then engineered to express full-length human GLP1R (GenBank: AAI12127.1) (HEK293/CRE-Luc/hGLP1R).
as §1
For the CRE-Luc assay, after a 5-hours incubation at 37° C., luciferase activity was determined by addition of ONE-Glo reagent (Promega, #E6130) followed by measurement of relative light units (RLUs) on EnVision Plate Reader (Perkin Elmer).
as §2

GLP1R humanized mouse = assay: In vivo conversion of c-M3190 ATL to c-M6009 after s.c. dosing; conditions: 7 days
Description: From a tryptic digestion of the parent M3190-ATL, peptide c-M3190 is a peptide and their structures/sequences were determined by high resolution mass spectroscopy as shown below.
11.4 Syntheses and Characterization of Peptide Compounds Identified from M3190 Metabolite Study

[5] = target: T2, GLP-1R of the cAMP assay of Tables 10, 14 and 15 (human, UniProt P43220 24-463, limits assumed); assay: cell-based or functional assay
[6] = target: full-length human GLP1R (GenBank: AAI12127.1) expressed on HEK293/CRE-Luc/hGLP1R cells (human, UniProt P43220 24-463); assay: cell-based or functional assay
[7] = target: T2, GLP-1R of the cAMP assay of Tables 10, …; assay: cell-based or functional assay; remark: listed apart in the source
[8] = target: hGLP1R-PK: full-length human GLP1R (NP_002053.3) with a C-terminus fusion to ProLink (PK), on … (human, UniProt P43220 24-463); assay: cell-based or functional assay
[9] = metabolites of Q-M3190 at 4 hours in human liver S9
[10] = metabolites of Q-M6009 at 4 hours in human liver S9
[11] = HEK293, read-out: Emax (% GLP-1), b-Arrestin2 recruitment, HEK293/b-arrestin2/hGLP1R

Molecule: CCc1cc(OCCCCn2cc(COCCOCCOCCOCCOCCOCCOCCOCCNC(=O)CCC(N)C(=O)O)nn2)ccc1-c1ccc(C[C@H](NC(=O)[C@H](CC(=O)O)NC(=O)[C@H](CO)NC(=O)[C@@H](NC(=O)C(C)(Cc2ccccc2F)NC(=O)[C@@H](NC(=O)CNC(=O)[C@H](Cc2nn[nH]n2)NC(=O)C(C)(C)C(=O)NCCc2cnc[nH]2)[C@@H](C)O)[C@@H](C)O)C(=O)N[C@@H](CCCc2cc(C)cc(C)c2)C(N)=O)cc1 (some centres unmarked) [M6067]
- Relative Abundance (% Total) [1, 9]: 56.51 % Total

Molecule: C[C@@H](O)[C@H](NC(=O)CNC(=O)[C@H](Cc1nn[nH]n1)NC(=O)C(C)(C)C(=O)NCCc1cnc[nH]1)C(=O)N[C@@](C)(Cc1ccccc1F)C(=O)N[C@H](C(=O)N[C@@H](CO)C(=O)N[C@@H](CC(=O)O)C(=O)O)[C@@H](C)O [AA10-AA(-AA8-AA7-AA6-AA5-AA4-AA3]
- Relative Abundance (% Total) [1, 10]: 0.21 % Total

Molecule: CCc1cc(OCCCCn2cc(COCCOCCOCCOCCOCCOCCOCCOCCN)nn2)ccc1-c1ccc(C[C@H](NC(=O)[C@H](CC(=O)O)NC(=O)[C@H](CO)NC(=O)[C@@H](NC(=O)[C@](C)(Cc2ccccc2F)NC(=O)[C@@H](NC(=O)CNC(=O)[C@H](Cc2nn[nH]n2)NC(=O)C(C)(C)C(=O)NCCc2cnc[nH]2)[C@@H](C)O)[C@@H](C)O)C(=O)N[C@@H](CCCc2cc(C)cc(C)c2)C(N)=O)cc1 [M3190]
- Emax (GLP-1R [2]; [11]): 128%
- EC50 (GLP-1R [2]; HEK293/b-arrestin2/hGLP1R cells, read-out: b-arrestin 2 recruitment EC50): 3.51e-08 M
- Emax (GLP-1R [2]; read-out: b-arrestin 2 recruitment Emax relative to GLP-1, HEK293/b-arrestin2/hGLP1R cells): 128%
- Relative Abundance (% Total) [1, 9]: 2.76 % Total
- EC50 (GLP-1R [3]; Table 14, peptide amides, read-out: cAMP EC50): 0.318 nM
- Emax (GLP-1R [4]): 96.3%
- EC50 (GLP-1R [4]; HEK293/CRE-Luc/hGLP1R cells, independent experiments A, B, C, read-out: EC50 (M), CRE-dependent reporter activity, HEK293/CRE-Luc/hGLP1R): 5.76e-10 M
- EC50 (GLP-1R [4]; HEK293/CRE-Luc/hGLP1R cells, read-out: CRE-dependent luciferase reporter activity EC50): 5.76e-10 M

Molecule: c-M3190 ATL: "Peptide C-M3190 identified from metabolite studies of M3190-antibody conjugate"; "From a tryptic digestion of the parent M3190-ATL" (LLQ(M3190 payload)GSGDIQMTQSPSSVSASVGDR; reading uncertain)
- conversion of c-M3190 ATL to c-M6009 (GLP1R humanized mouse): slowly converted to c-M6009 after 7 days

Molecule: CCc1cc(OCCCCn2cc(COCCOCCOCCOCCOCCOCCOCCOCCNC(=O)CC[C@H](N)C(=O)O)nn2)ccc1-c1ccc(C[C@H](NC(=O)[C@H](CC(=O)O)NC(=O)[C@H](CO)NC(=O)[C@@H](NC(=O)C(C)(Cc2ccccc2F)NC(=O)[C@@H](NC(=O)CNC(=O)[C@H](Cc2nn[nH]n2)NC(=O)C(C)(C)C(=O)NCCc2cnc[nH]2)[C@@H](C)O)[C@@H](C)O)C(=O)N[C@@H](CCCc2cc(C)cc(C)c2)C(=O)O)cc1 (some centres unmarked) [Q-M6009]
- Relative Abundance (% Total) [1, 9]: 38.40 % Total
- Relative Abundance (% Total) [1, 10]: 79.84 % Total
- GLP-1R CAMP Max (GLP-1R [3]; Table 10): 106.2%
- EC50 (GLP-1R [3]; Table 10, read-out: GLP-1R CAMP EC50): 3.21 nM

Molecule: Cc1cc(OCCOCCOCCOCCOCCOCCOCCOCCN)ccc1-c1ccc(C[C@H](NC(=O)[C@H](CC(=O)O)NC(=O)[C@H](CO)NC(=O)[C@@H](NC(=O)C(C)(Cc2ccccc2F)NC(=O)[C@@H](NC(=O)CNC(=O)[C@H](Cc2nnn[nH]2)NC(=O)C(C)(C)C(=O)NCCc2cnc[nH]2)[C@@H](C)O)[C@@H](C)O)C(=O)O)cc1 (some centres unmarked) [M6447]
- Emax (GLP-1R [2]; [11]): 0.3%
- b-arrestin 2 recruitment (in words) (GLP-1R [2]; HEK293/b-arrestin2/hGLP1R cells): recruited very low levels of b-arrestin 2
- EC50 (GLP-1R [2]; HEK293/b-arrestin2/hGLP1R cells, independent experiments A, B, read-out: EC50 (M), b-Arrestin2 recruitment, HEK293/b-arrestin2/hGLP1R): > 1e-06 M
- EC50 (GLP-1R [4]): > 1e-06 M
- Emax (GLP-1R [4]): 9.8%
- CRE-dependent luciferase reporter activity (in words) (GLP-1R [4]; HEK293/CRE-Luc/hGLP1R cells): very weak activator of CRE-dependent luciferase reporter activity

B1: M6009 (AA10-AA9-AA8-AA7-AA6-AA5-AA4-AA3-(L)AA2-AA1-OH) (peptide)
peptide: [AA10][AA9]GT[AA6]TSD[AA2](Leu)[AA1]-OH
modifications: reading uncertain; also: also named NH2-PEG8-triazole-P8 acid, printed as M6009 (AA10-AA9-AA8-AA7-AA6-AA5-AA4-AA3-(L)AA2-AA1-OH)
- GLP-1R CAMP EC50 [5]: 2.23 nM
- GLP-1R CAMP Max (%) [5]: 140%
- EC50 (M), CRE-dependent reporter activity, HEK293/CRE-Luc/hGLP1R [6]: 4.64e-10 M
- Emax (% GLP-1), CRE-dependent reporter activity, HEK293/CRE-Luc/hGLP1R [6]: 92.1 % GLP-1

B2: Q-M3190 (AA10-AA9-AA8-AA7-AA6-AA5-AA4-AA3-(Q-L)AA2-AA1-NH2) (peptide)
peptide: [AA10][AA9]GT[AA6]TSD[AA2]([Leu-Gln])[AA1]-NH2
modifications: reading uncertain; also: printed as Q-M3190 (AA10-AA9-AA8-AA7-AA6-AA5-AA4-AA3-(Q-L)AA2-AA1-NH2)
- cAMP EC50 (nm) [7]: 1.07 nm

B3: M6324 (AA10-AA9-AA8-AA7-AA6-AA5-AA4-AA3-(L)AA2-OH) (peptide)
peptide: [AA10][AA9]GT[AA6]TSD[AA2](Leu)-OH
modifications: reading uncertain; also: printed as M6324 (AA10-AA9-AA8-AA7-AA6-AA5-AA4-AA3-(L)AA2-OH)
- GLP-1R CAMP EC50 [5]: 882 nM
- GLP-1R CAMP Max (%) [5]: 53.3%
- EC50 (M), CRE-dependent reporter activity, HEK293/CRE-Luc/hGLP1R [6]: 2.93e-07 M
- Emax (% GLP-1), CRE-dependent reporter activity, HEK293/CRE-Luc/hGLP1R [6]: 91.6 % GLP-1
- EC50 (M), b-Arrestin2 recruitment, HEK293/b-arrestin2/hGLP1R [8]: > 1e-06 M
- Emax (% GLP-1), b-Arrestin2 recruitment, HEK293/b-arrestin2/hGLP1R [8]: 0.7 % GLP-1

— patent US20250171516A1, “PEPTIDE ACIDS AS A GLP1R AGONIST AND ANTIBODY-DRUG CONJUGATES THEREOF” (Regeneron Pharmaceuticals, Inc., priority 2023, published 2025)
